Source: publication PMC3592886, “Utilization of Quantitative In Vivo Pharmacology Approaches to Assess Combination Effects of Everolimus and Irinotecan in Mouse Xenograft Models of Colorectal Cancer” (PLoS ONE, 2013)

Tests used:
HCT116 cells [1] = test: Sulforhodamine B (SRB) anti-proliferation assay, HCT116; assay type: cell-based
Experimental: (§1) Cytoxic effects were determined using the sulforhodamine B (SRB) assay. Briefly, 5000 viable cells were plated into 96-well plates and incubated overnight prior to exposure with different concentrations of drugs. Cells were exposed to increasing concentrations of everolimus (0–200 nM), SN38 (0–8 nM), and combinations of the two. Following a 72 hour incubation, media was removed and cells were fixed with cold 10% trichloroacetic acid for 30 minutes at 4° C. Cells were washed with water and stained with 0.4% SRB for 30 minutes at room temperature. Cells were washed again with 1% acetic acid and stain was solubilized with 10 mM tris at room temperature and read at an OD of 565 nm. […] The resulting Combination Index (CI) was used as a quantitative measure of the degree of interaction between different drugs. A CI value equal to 1 denotes additivity; CI greater than 1, antagonism; CI less than 1, synergism.

[2] = everolimus, mice; cited from earlier work
HCT116 cells [3] = test: In vitro metabolomics, HCT116 cells; assay type: cell-based; details: 24 and 96 hours exposure to 30nM RAD001
Experimental: Metabolomics was performed in vitro on HCT116
(KRAS mt; PIK3CA mt) and HT29 (BRAF mt;
PIK3CA mt) cells after 0 (control), 24 and 96 hours exposure to 30nM RAD001. In both cell lines after 24 and 96 hours glucose uptake was reduced showing a decrease in proliferation. […]

HT29 tumor xenografts = test: Therapeutic study and tumor growth modeling, HT29 tumor xenografts; assay type: in vivo, mice
Experimental: (§2) For tumor bearing studies, cells were harvested and resuspended in a 1∶1 mixture of serum-free RPMI and Matrigel (BD Bioscience). One million cells were injected subcutaneously into each rear flank of mice. Tumor volumes, measured by digital calipers, were calculated by V (mm^3) = length x (width)^2 x 0.5236.
(§3) When HT29 and HCT116 tumors reached an average volume of ∼325 mm^3 animals were randomized into four treatment groups (n = 9–10 mice per group): (i) vehicles, (ii) 5 mg/kg everolimus (RAD) by oral gavage (PO) daily, (iii) 10 mg/kg irinotecan (IRI) once weekly by intravenous (iv) tail vein injection, and (iv) a combination of RAD and IRI. Everolimus, diluted in sterile water, and irinotecan, diluted in sterile 0.9% saline, were administered at 4 mL/kg. Animals were treated for 28 days. Tumor volumes and body weights were measured 2–3 times weekly. On day 28 of treatment 3–6 animals per group were sacrificed, approximately 24 hours following everolimus treatment, and tumors harvested for metabolomic analysis.
(§4) Data from the in vivo study was modeled to assess the therapeutic benefit of adding everolimus to irinotecan. The model used was similar to a previously published model for assessing combination therapy. Some modifications were made and details of the model can be found in Supplement S1 (section SA.3.) and Supplement S2. All modeling was performed on individual animal tumor volume data and modeled with SAAM II version 2.1. […]
(§5) are presented in Tables 1 and 2 in Supplement B. Individual fits of the model to the data can also be found in Supplement B. The average growth terms for each tumor type were then fixed at the average parameter value and used to determine the single agent effects (kx) of each compound by fitting the following equation: […] where cx(t) is the concentration of drug x with respect to time. Individual tumors were modeled and the average value of kx determined (Supplement B Tables 1 & 2) for each single agent treatment. This value was used to fit the following equation to the combination tumor growth data to determine the degree of interaction between the two drugs.
(§6) , the interaction term, was determined for each individual tumor for each tumor type and the data is presented in Table 2 in the main text and individual fits can be found in Supplement B.
(§7) We determined that values greater than 1.3 are synergistic, between 1.3 and 0.7 are additive, between 0.7 and 0 are less than additive, and negative values for are antagonistic. These ranges were selected based on the model fits. The CV% for the model fits ranged from 15 to 50 with an average CV% of approximately 30%. Therefore we assume an average variance of 30% making the additive range from 1.3 to 0.7 (1 + 30% and 1- 30%). […]

HCT116 tumor xenografts = test: Therapeutic study and tumor growth modeling, HCT116 tumor xenografts; assay type: in vivo, mice
Experimental: as §2, §3, §4, §5, §6, §7

HCT116 tumors = test: NMR-based metabolomics of HCT116 tumors; assay type: in vivo, mice; details: end of study
Experimental: as §3
For metabolomic analysis, animals were fasted for 4 hours then received 250 mg/kg of [1-^13C] glucose (Cambridge Isotopes, Cambridge, MA) by IV injection 60 minutes prior to tumor harvesting. Snap-frozen tumor specimens underwent two-phase acid extraction procedure (using 8% perchloric acid) previously established and extensively published [19]–[22]. Further details may also be found in Supplement S1 (section SA.2.).

HCT8 cells = test: Sulforhodamine B (SRB) anti-proliferation assay, HCT8; assay type: cell-based; details: RAD (20 nM), SN38 (4 nM) or the combination of the two, Figure 2
Experimental: as §1

CO[C@H]1C[C@@H]2CC[C@@H](C)[C@@](O)(O2)C(=O)C(=O)N2CCCC[C@H]2C(=O)O[C@H]([C@H](C)C[C@@H]2CC[C@@H](OCCO)[C@H](OC)C2)CC(=O)[C@H](C)/C=C(\C)[C@@H](O)[C@@H](OC)C(=O)[C@H](C)C[C@H](C)/C=C/C=C/C=C/1C [Everolimus, 40-O-(2-hydroxyethyl)-rapamycin]
%Growth Inhibition (HCT116 cells [1]; HCT116, RAD (20 nM), SN38 (4 nM) or the combination of the two, Figure 2): 49% | IC50 (HCT116 cells [1]; Homo sapiens, HCT-116, HCT116 cells): 25 nM | plasma protein binding [2]: 99% | glucose uptake (HCT116 cells [3]): reduced | k2 (SD), single agent effect (HT29 tumor xenografts; HT29 (BRAF and PIK3CA mutant), RAD): 0.000263 (0.00015) mL/ng*day-1 | average tumor growth inhibition, TGI (HT29 tumor xenografts; HT29 xenografts, 5 mg/kg everolimus PO daily, 10 mg/kg irinotecan iv once weekly, or combination, 28 days): 40% | k2 (SD), single agent effect (HCT116 tumor xenografts; HCT116 (KRAS and PIK3CA mutant), RAD): 0.000482 (0.00011) mL/ng*day-1 | average tumor growth inhibition, TGI (HCT116 tumor xenografts; HCT116 xenografts, 5 mg/kg everolimus PO daily, 10 mg/kg irinotecan iv once weekly, or combination, 28 days): 44% | effects on glucose metabolism (HCT116 tumors): decrease in lactate and glycolysis | %Growth Inhibition (HCT8 cells): 59%
